The text below walks through data of PubChem BioAssay (NCI).

“And” between values parts separate entries of the source, which are not always exact repeats. Equal values may be shown once.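 Step 1: Grow cells in 96-well plates. Step 2: Expose to compound for 48 hours at 5 concentrations. Step 3: Interpolate endpoints linearly; if unreached, use highest concentration. The concentration for 50% growth inhibition is given as GI50. TGI denotes the concentration required for complete inhibition of growth.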

Some test systems named below: 786-0 renal; NCI/ADR-RES ovarian; OVCAR-3 ovarian; SK-MEL-28 melanoma; HCT-116 colon; HOP-62 NSCLC; UO-31 renal; HCT-15 colon; M14 melanoma; SNB-75 CNS.
Holding throughout (experiment): growth of human tumour cells (NCI), 48 h

On to `C#Cc1cccc(Nc2nc3ccc([N+](=O)[O-])cc3nc2Nc2cccc(C#C)c2)c1`, for which the GI50 in the assay on 786-0 renal is 0.226 µM; with NCI/ADR-RES ovarian it was 0.284 µM; in the assay with OVCAR-3 ovarian, 0.193 µM; in the assay on SK-MEL-28 melanoma, 0.354 µM; in the assay with HCT-116 colon, 0.214 µM; with HOP-62 NSCLC it was 0.188 µM. Further, the GI50 was 0.321 µM in the assay with UO-31 renal, 0.197 µM with HCT-15 colon, 0.199 µM in the assay on M14 melanoma and 0.175 µM in the assay with SNB-75 CNS. For the same molecule, the TGI in the assay on 786-0 renal was determined as 0.73 µM; with NCI/ADR-RES ovarian, 1.1 µM; in the assay with OVCAR-3 ovarian it was 0.67 µM; with SK-MEL-28 melanoma, 1.17 µM; in the assay with HCT-116 colon, 0.715 µM; with HOP-62 NSCLC it was 0.476 µM. The TGI in the assay on UO-31 renal came out at 1.14 µM; in the assay on HCT-15 colon, 0.716 µM; in the assay on M14 melanoma, 0.495 µM; with SNB-75 CNS, 0.653 µM.
Regarding `CNC1C(O)C(OC2C(N)CC(N)C(OC3OC(C(C)O)C(O)C(O)C3N)C2O)OCC1(C)O` (stereo not drawn), the TGI in the assay on 786-0 renal, with NCI/ADR-RES ovarian, with OVCAR-3 ovarian, in the assay with SK-MEL-28 melanoma, with HCT-116 colon and with HOP-62 NSCLC was > 100 µM in each case. Besides, the TGI in the assay on UO-31 renal, with HCT-15 colon, with M14 melanoma and in the assay with SNB-75 CNS was > 100 µM in each case.
Consider `COc1ccc(-c2csc(-c3cc(Cl)cc(Cl)c3Cl)n2)cc1`, for which the GI50 in the assay on 786-0 renal was > 100 µM; in the assay with NCI/ADR-RES ovarian, 52.2 µM; in the assay on OVCAR-3 ovarian, 86.8 µM; in the assay on SK-MEL-28 melanoma, > 100 µM; in the assay with HCT-116 colon, > 100 µM; with HOP-62 NSCLC, > 100 µM. Moreover, the GI50 is > 100 µM in the assay with UO-31 renal, 73.5 µM in the assay on HCT-15 colon, > 100 µM with M14 melanoma and 40 µM with SNB-75 CNS. In addition, the TGI with 786-0 renal, with NCI/ADR-RES ovarian, with OVCAR-3 ovarian, in the assay with SK-MEL-28 melanoma, in the assay with HCT-116 colon and with HOP-62 NSCLC was > 100 µM throughout. Also, the TGI with UO-31 renal, in the assay with HCT-15 colon, in the assay on M14 melanoma and with SNB-75 CNS was > 100 µM throughout.
On to `CN(C[C@@H]1COCCO1)S(=O)(=O)Nc1ccc2ccc3ncc(-c4cnn(C)c4)cc3c(=O)c2c1`, for which the GI50 is 6.04 µM with 786-0 renal; 11.8 µM with NCI/ADR-RES ovarian; 11.8 µM in the assay with OVCAR-3 ovarian; > 66.8 µM in the assay on SK-MEL-28 melanoma; 3.87 µM with HCT-116 colon; 10.9 µM in the assay with HOP-62 NSCLC. The GI50 in the assay on UO-31 renal is 1.95 µM; with HCT-15 colon it was 3.64 µM; in the assay on M14 melanoma it was 3.89 µM; in the assay on SNB-75 CNS, 1.6 µM. For the same molecule, the TGI with 786-0 renal, in the assay with NCI/ADR-RES ovarian, in the assay on OVCAR-3 ovarian, with SK-MEL-28 melanoma, in the assay with HCT-116 colon and with HOP-62 NSCLC was > 100 µM throughout. Moreover, the TGI in the assay with UO-31 renal was > 100 µM; with HCT-15 colon, > 100 µM; in the assay with M14 melanoma, > 100 µM; in the assay on SNB-75 CNS, > 27.4 µM.
`CCOC(=O)c1cc2c(n1Cc1ccccc1)-c1oncc1CC2`: the GI50 in the assay on 786-0 renal is 7.51 µM; in the assay on NCI/ADR-RES ovarian, 2.01 µM; in the assay with OVCAR-3 ovarian, 3.06 µM; with SK-MEL-28 melanoma, 52.4 µM; in the assay with HCT-116 colon, 3.45 µM; in the assay on HOP-62 NSCLC, 5.3 µM. Moreover, the GI50 with UO-31 renal is 4.32 µM; with HCT-15 colon it was 3.58 µM; in the assay on M14 melanoma, 3.69 µM; in the assay with SNB-75 CNS, 4.68 µM. Further, the TGI in the assay with 786-0 renal is 34.2 µM; in the assay with NCI/ADR-RES ovarian it was 6.3 µM; in the assay on OVCAR-3 ovarian, 10.5 µM; with SK-MEL-28 melanoma it was > 100 µM; with HCT-116 colon, 13.7 µM; in the assay on HOP-62 NSCLC it was > 100 µM. For the same molecule, the TGI in the assay with UO-31 renal was 40.5 µM; in the assay with HCT-15 colon, 56.2 µM; in the assay on M14 melanoma it was 24.6 µM; in the assay with SNB-75 CNS, > 100 µM.
In the case of `N[C@@H]1CCCN(c2c(/C=C3\SC(=O)NC3=O)cccc2-c2ccccc2)C1`, the GI50 was 15.4 µM with 786-0 renal; 17.4 µM in the assay with NCI/ADR-RES ovarian; 15.3 µM in the assay with OVCAR-3 ovarian; 13.1 µM in the assay with SK-MEL-28 melanoma; 13.1 µM in the assay with HCT-116 colon; 11.7 µM with HOP-62 NSCLC. Moreover, the GI50 with UO-31 renal was 12.7 µM; in the assay on HCT-15 colon it was 13.7 µM; with M14 melanoma, 11.1 µM; in the assay on SNB-75 CNS, 3.31 µM. The TGI in the assay with 786-0 renal is 29.8 µM; with NCI/ADR-RES ovarian it was 40.4 µM; in the assay on OVCAR-3 ovarian, 29.4 µM; with SK-MEL-28 melanoma, 27.8 µM; in the assay on HCT-116 colon it was 26.9 µM; with HOP-62 NSCLC, 25.5 µM. Besides, the TGI was 27.3 µM with UO-31 renal, 29.5 µM with HCT-15 colon, 25.8 µM in the assay on M14 melanoma and 17.5 µM in the assay with SNB-75 CNS.
As for `Nc1c(C(=O)Nc2ccccc2F)sc2nc3c(cc12)C(=O)CCC3`, the GI50 was 13.6 µM with 786-0 renal; 0.509 µM in the assay on NCI/ADR-RES ovarian; 0.576 µM with OVCAR-3 ovarian; 6.33 µM with SK-MEL-28 melanoma; 0.646 µM with HCT-116 colon; 4.12 µM in the assay on HOP-62 NSCLC. Also, the GI50 was > 100 µM with UO-31 renal, 0.642 µM in the assay with HCT-15 colon, 0.645 µM in the assay with M14 melanoma and 1.88 µM in the assay with SNB-75 CNS. The TGI in the assay on 786-0 renal is > 100 µM; with NCI/ADR-RES ovarian, 5.09 µM; in the assay on OVCAR-3 ovarian, 3.9 µM; with SK-MEL-28 melanoma it was > 100 µM; with HCT-116 colon, > 100 µM; with HOP-62 NSCLC, > 100 µM. Besides, the TGI with UO-31 renal is > 100 µM; in the assay with HCT-15 colon, > 100 µM; in the assay with M14 melanoma it was > 100 µM; in the assay on SNB-75 CNS, > 57.8 µM.
Consider `Nc1nc(N)c2nc(CNc3ccc(C(=O)NC(CCCNC(=O)c4ccccc4C(=O)O)C(=O)O)cc3)cnc2n1` (stereo not drawn), for which the GI50 is 0.00054 µM in the assay with 786-0 renal; 0.00273 µM in the assay on NCI/ADR-RES ovarian; < 0.0157 µM and 0.0676 µM in the assay with OVCAR-3 ovarian; 0.00028 µM in the assay on HCT-116 colon; < 0.02 µM and 0.00449 µM and < 0.0546 µM with HOP-62 NSCLC; 0.00532 µM in the assay with UO-31 renal. For the same molecule, the GI50 with HCT-15 colon is 0.00105 µM; with M14 melanoma, 0.0226 µM. For the same molecule, the TGI with 786-0 renal, in the assay with NCI/ADR-RES ovarian, in the assay on OVCAR-3 ovarian, with SK-MEL-28 melanoma, in the assay on HCT-116 colon and in the assay on HOP-62 NSCLC was > 100 µM throughout. In addition, the TGI in the assay with UO-31 renal, in the assay with HCT-15 colon, with M14 melanoma and with SNB-75 CNS was > 100 µM in each case.
